Consider one sequence from patent publication US7645740B2, “Peptide sequence found in Laminin 5 for treating skin impairments” (Laboratoires d'Anjou Centre National de la Recherche …, priority 2004, dated 2010).

The subject of one assay is NHKs. The experiment in a line: Cell adhesion of NHKs to peptide co-immobilized with collagen IV. Type of assay: cell-based, human. The following applies: collagen IV fixed quantity 0.06 mg, 50,000 cells per well, percentage of COL4 alone. The method, then: Peptides 1, 2 and 3 (variable quantities indicated) and collagen IV (fixed quantity 0.06 mg) were co-immobilized in 96-well plates. 5×104 NHKs were deposited in each well and plates were incubated at 37° C. for 1 hour. After washing, attached cells were fixed and cell adhesion was measured as described in the methodology section. Cell adhesion in the presence of the peptide is given as a percentage of cell adhesion obtained with collagen IV alone. Cells were observed by phase contrast microscopy then photographed. Bar=50 μm.
A decreasing range of LN5 (prepared in the laboratory) and COL4 (BD Biosciences, Le Pont de Claix, France) quantities was made up by successive dilution in PBS. These solutions were immediately distributed into a 96-well culture plate (Costar) at a rate of 100 μl per well. The experiment was conducted in exactly the same way as the experiment described in example 2. The results are given in the form of a graph with the absorbance values representing adhesion on the ordinate and the various substrate concentrations on the abscissa. […]
In order to analyse the effect of the peptide on cell adhesion to DEJ proteins, peptide TALRIRATYGEY (SEQ ID NO.1) (peptide 1) was co-immobilized with LN5 (FIG. 14) and COL4 (FIG. 15). The fixed quantity of matrix protein (LN5 and COL4) and the variable quantity of peptide are given on the graph (FIGS. 14 and 15). […]

Assay [1] deals with NHK-old (keratinocytes from elderly individuals). In words: Cell adhesion of NHK-old to immobilized peptide. Conditions: 0 to 5 micrograms per well, 1 hour 37° C. Type of assay: cell-based, human. The protocol:
Dose-dependent cell adhesion of NHK-10 years versus NHK-71 years (A) and NHK-11 years versus NHK-60 years (B) peptides TALRIRATYHEY. The peptides were immobilized in 96-well plates at the concentrations given on the abscissa. 3.5×10^4 (A) cells and 4.3×10^4 (B) cells were deposited in each well and plates were incubated at 37° C. for 1 hour. After washing, attached cells were fixed and cell adhesion was measured as described in the methodology section (C). Cells were observed by phase contrast microscopy then photographed. Bar=50 μm.
In order to obtain keratinocytes originating from biopsies taken from young and old individuals and taken from the same anatomical site, the inventors conducted a study of facial skin biopsies. The area of the face situated behind the ears was chosen in order to study only intrinsic aging and to overcome the effects of photo-induced aging. Surgery waste from cosmetic surgery (face lifts) in older individuals and surgery waste from detached ears in young children was collected. It is essential to use biopsies collected on the same day as surgery was performed in order to quickly place the epidermal keratinocytes in culture. Cells from biopsies on elderly individuals (60, 63 and 71 years) and young individuals (8, 10 and 11 years) were used for this study. The keratinocytes were obtained by means of the technique described by Boyce and Ham, 1985. […]

On to “TALRIRATYGEY (Human laminin 5) [Peptide 1]”, for which the “effect on adhesion of keratinocytes to COL4 (co-immobilized)” value with NHKs is listed as “no significant effect”. For the same sequence, the “cell adhesion to immobilized peptide” value in assay [1] is on record as “triggered dose-dependent cell adhesion”.
